Results published in the supplement of paper PMC10307832.

Assays:
Assay in all cases: relative viability (nuclei count vs DMSO), 5 days (fraction); higher = more cells survive
Doramapimod + Pemetrexed = compound: Cc1ccc(-n2nc(C(C)(C)C)cc2NC(=O)Nc2ccc(OCCN3CCOCC3)c3ccccc23)cc1 [Doramapimod] + Nc1nc2[nH]cc(CCc3ccc(C(=O)N[C@@H](CCC(=O)O)C(=O)O)cc3)c2c(=O)[nH]1 [Pemetrexed] (partner 0.2 µM)
Summary of the method: (§1)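 Nuclei were stained with Hoechst during a one-step fixation (final 0.05% Triton X-100, 1% formaldehyde, 1 ug/ml Hoechst) carried out 5 days after dosing, then counted on 4× images. The cells, lung cancer lines in 1536-well plates, had been dosed by pin tool the day after seeding with one drug alone or a fixed anchor-drug dose plus five library-drug doses (not always all listed) in √10 steps. Relative viability is the nuclei count in treated wells divided by that in vehicle wells, and each value is the median of duplicate plates.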

IPA-3 + Linsitinib = compound: C1=CC=C2C(=C1)C=CC(=C2SSC3=C(C=CC4=CC=CC=C43)O)O [IPA-3] + C[C@]1(O)C[C@@H](c2nc(-c3ccc4ccc(-c5ccccc5)nc4c3)c3c(N)nccn32)C1 [Linsitinib] (partner 1 µM)
Summary of the method: as §1

RAF265 + OSI-027 = compound: Cn1c(Nc2ccc(C(F)(F)F)cc2)nc2cc(Oc3ccnc(-c4ncc(C(F)(F)F)[nH]4)c3)ccc21 [RAF265] + COc1cccc2cc(-c3nc([C@H]4CC[C@H](C(=O)O)CC4)n4ncnc(N)c34)[nH]c12 [OSI-027] (partner 0.5 µM)
Summary of the method: as §1

IPA-3 + Bortezomib = compound: C1=CC=C2C(=C1)C=CC(=C2SSC3=C(C=CC4=CC=CC=C43)O)O [IPA-3] + CC(C)C[C@H](NC(=O)[C@H](Cc1ccccc1)NC(=O)c1cnccn1)B(O)O [Bortezomib] (partner 0.002 µM)
Summary of the method: as §1

Cell Line | relative viability (Doramapimod + Pemetrexed; first compound 0.02 µM) | relative viability (Doramapimod + Pemetrexed; first compound 0.06325 µM) | relative viability (Doramapimod + Pemetrexed; first compound 0.2 µM) | relative viability (Doramapimod + Pemetrexed; first compound 0.6325 µM) | relative viability (Doramapimod + Pemetrexed; first compound 2 µM) | relative viability (IPA-3 + Linsitinib; first compound 0.2 µM) | relative viability (IPA-3 + Linsitinib; first compound 0.6325 µM) | relative viability (IPA-3 + Linsitinib; first compound 2 µM) | relative viability (IPA-3 + Linsitinib; first compound 6.325 µM) | relative viability (IPA-3 + Linsitinib; first compound 20 µM) | relative viability (RAF265 + OSI-027; first compound 0.01 µM) | relative viability (RAF265 + OSI-027; first compound 0.03162 µM) | relative viability (RAF265 + OSI-027; first compound 0.1 µM) | relative viability (RAF265 + OSI-027; first compound 0.3162 µM) | relative viability (RAF265 + OSI-027; first compound 1 µM) | relative viability (IPA-3 + Bortezomib; first compound 0.2 µM) | relative viability (IPA-3 + Bortezomib; first compound 0.6325 µM) | relative viability (IPA-3 + Bortezomib; first compound 2 µM) | relative viability (IPA-3 + Bortezomib; first compound 6.325 µM) | relative viability (IPA-3 + Bortezomib; first compound 20 µM)
HCC-78 | 0.879 | 0.883 | 0.918 | 0.967 | 0.887 | 0.569 | 0.597 | 0.454 | 0.583 | 0.635 | 0.35 | 0.424 | 0.396 | 0.346 | 0.341 | 0.624 | 0.359 | 0.555 | 0.479 | 0.675
HCC-366 | 0.147 | 0.197 | 0.212 | 0.186 | 0.178 | 0.996 | 0.627 | 0.723 | 0.756 | 0.696 | 1.04 | 0.939 | 0.834 | 0.165 | 0.107 | 1.36 | 0.996 | 1.04 | 1.08 | 1.25
HCC-827 | 0.238 | 0.253 | 0.254 | 0.242 | 0.199 | 0.916 | 0.943 | 0.935 | 0.917 | 0.925 | 0.754 | 0.783 | 0.708 |  | 0.649 | 1.1 | 0.936 | 1.01 | 0.996 | 1
HOP-62 | 0.242 | 0.306 | 0.295 | 0.326 | 0.309 | 0.903 | 1.07 | 0.754 | 1.05 | 1.2 | 0.807 | 0.774 | 0.698 | 0.731 | 0.631 | 1.09 | 0.858 | 0.722 | 0.701 | 0.93
LC-2-ad | 0.268 | 0.291 | 0.297 | 0.28 | 0.289 | 0.885 | 0.845 | 0.86 | 0.795 | 0.86 | 0.969 | 0.798 | 0.902 | 0.442 | 0.378 | 1 | 0.974 | 1.05 | 0.983 | 0.998
LCLC-97TM1 | 0.181 | 0.171 | 0.164 | 0.184 | 0.156 | 0.208 | 0.215 | 0.181 | 0.202 | 0.215 | 0.516 | 0.328 | 0.215 | 0.416 | 0.0767 | 0.524 | 0.847 | 0.814 | 0.438 | 0.575
LCLC-103H | 0.436 | 0.417 | 0.413 | 0.428 | 0.424 | 1.1 | 1.07 | 1.01 | 1.1 | 1.16 | 0.466 | 0.439 | 0.464 | 0.443 | 0.308 | 1.13 | 1.06 | 1.17 | 1.17 | 1.18
LOU-NH91 | 0.388 | 0.396 | 0.355 | 0.379 | 0.395 | 0.985 | 0.92 | 0.979 | 0.99 | 1.14 | 0.703 | 0.653 | 0.737 | 0.45 | 0.486 | 0.493 | 0.479 | 0.498 | 0.478 | 0.597
LU99A | 0.175 | 0.196 | 0.155 | 0.18 | 0.323 | 0.563 | 0.476 | 0.553 | 0.517 | 0.547 | 0.299 | 0.274 | 0.27 | 0.258 | 0.205 | 1.23 | 1.07 | 1.28 | 1.04 | 1.06
LXF-289 | 0.959 | 0.914 | 0.83 | 0.863 | 0.971 | 1.09 | 0.961 | 0.951 | 1.02 | 1.11 | 0.836 | 0.813 | 0.59 | 0.326 | 0.2 | 1.03 | 0.954 | 1.04 | 1.04 | 1.1
NCI-H23 | 0.607 | 0.749 | 0.679 | 0.703 | 0.533 | 0.613 | 0.667 | 0.522 | 0.603 | 0.645 | 0.734 | 0.46 | 0.412 | 0.318 | 0.221 | 1.39 | 0.964 | 1.08 | 1.06 | 0.797
NCI-H322M | 0.666 | 0.653 | 0.64 | 0.644 | 0.654 | 1.01 | 0.941 | 0.987 | 0.947 | 0.978 | 0.589 | 0.519 | 0.41 | 0.358 | 0.186 | 1.31 | 1.21 | 1.19 | 1.32 | 1.23
NCI-H441 | 0.252 | 0.244 | 0.251 | 0.268 | 0.268 | 0.568 | 0.568 | 0.611 | 0.541 | 0.515 | 0.612 | 0.591 | 0.454 | 0.346 | 0.351 | 0.446 |  | 0.285 | 0.734 | 0.589
NCI-H460 | 0.0629 | 0.0546 | 0.0497 | 0.0506 | 0.0521 | 1.69 | 0.603 | 0.968 | 0.711 | 0.771 | 0.696 | 0.627 | 0.416 | 0.222 | 0.0945 | 1.64 | 1 | 1.24 | 1.07 | 1.05
NCI-H520 | 0.607 | 0.638 | 0.732 | 0.537 | 0.683 | 1.02 | 0.951 | 1.03 | 0.855 | 0.982 | 0.248 | 0.255 | 0.287 | 0.299 | 0.224 | 1.13 | 0.769 | 0.536 | 0.684 | 0.487
NCI-H596 | 0.484 | 0.52 | 0.468 | 0.522 | 0.479 | 1.3 | 0.993 | 1.04 | 1.09 | 1.14 | 0.982 | 0.751 | 0.784 | 0.563 | 0.554 | 1.33 | 1.12 | 1.18 | 0.914 | 1.17
NCI-H647 | 0.195 | 0.138 | 0.15 | 0.168 | 0.152 | 1.52 | 1.01 | 1.11 | 0.641 | 0.38 | 0.598 | 0.618 | 0.417 | 0.246 | 0.213 | 1.77 | 0.939 | 0.654 | 0.614 | 0.121
NCI-H650 | 0.741 | 0.938 | 0.976 | 1.06 | 0.9 | 0.89 | 0.966 | 0.877 | 0.788 | 1.07 | 0.52 | 0.468 | 0.491 | 0.411 | 0.279 | 0.972 | 0.83 | 0.798 | 0.858 | 1.22
NCI-H661 | 1.05 | 0.861 | 0.923 | 0.96 | 0.901 | 0.52 | 0.466 | 0.712 | 0.598 | 0.646 | 0.742 | 0.394 | 0.44 | 0.333 | 0.291 | 0.972 | 0.779 | 0.915 | 0.967 | 0.897
NCI-H838 | 0.238 | 0.252 | 0.276 | 0.263 | 0.246 | 1.34 | 0.983 | 1.1 | 0.978 | 1.13 | 0.403 | 0.491 | 0.455 | 0.341 | 0.304 | 1.89 | 0.847 | 0.667 | 1.03 | 0.815
NCI-H1355 | 1.06 | 1.04 | 0.999 | 1.05 | 0.894 | 0.942 | 0.82 | 0.786 | 0.742 | 0.895 | 0.461 | 0.314 | 0.3 | 0.251 | 0.217 | 1.44 | 1.25 | 1.18 | 1.16 | 1.3
NCI-H1437 | 0.291 | 0.287 | 0.323 | 0.329 | 0.302 | 1.25 | 0.933 | 0.988 | 0.975 | 1.3 | 0.863 | 0.918 | 0.82 | 0.982 | 0.611 | 1.09 | 0.467 | 0.443 | 0.438 | 0.587
NCI-H1563 | 0.83 | 0.768 | 0.811 | 1.13 | 0.787 | 1.31 | 1.24 | 1.32 | 1.34 | 1.3 | 0.769 | 0.772 | 0.738 | 0.706 | 0.739 | 1.03 | 0.689 | 0.801 | 0.996 | 0.846
NCI-H1651 | 0.576 | 0.731 | 0.594 | 0.658 | 0.595 | 1.1 |  | 1.07 | 1.04 | 1.05 | 0.783 | 0.776 | 0.695 | 0.52 | 0.362 | 1.02 | 0.912 | 0.998 | 1.04 | 1.06
NCI-H1666 | 0.841 | 0.916 | 0.819 | 0.948 | 0.913 | 0.865 | 0.87 | 0.857 | 0.763 | 0.693 | 0.89 | 0.716 | 0.774 | 0.739 | 0.598 | 0.903 | 0.808 | 0.887 | 0.76 | 0.73
NCI-H1734 | 0.416 | 0.431 | 0.419 | 0.382 | 0.39 | 0.995 | 0.849 | 0.884 | 0.92 | 1.07 | 0.604 | 0.54 | 0.38 | 0.381 | 0.247 | 0.973 | 0.812 | 1.03 | 0.995 | 0.87
NCI-H1755 | 0.328 | 0.371 | 0.435 | 0.394 | 0.35 | 1.03 | 0.94 | 0.981 | 0.984 | 1.04 | 0.689 | 0.636 | 0.597 | 0.455 | 0.303 | 1.02 | 0.905 | 0.946 | 0.997 | 1.08
